Laboratory results reported in PMC8694143 (Microbiology Spectrum, 2021).
≈ marks a conversion by molar mass, not a printed value. Entries after “also recorded” stand apart in the source; their conditions may differ. Non-standard residues stand in square brackets, D forms with d. Residues, ends and D or L forms follow the SMILES beside them. No end group written: not given here. *: point of attachment. 5FAM = O=C1OC2(c3ccc(O)cc3Oc3cc(O)ccc32)c2ccc(C(=O)*)cc21

What was measured:
[1] = test system: MRSA ATCC 33592; assay: MIC determination in broth; format: cell-based, Staphylococcus aureus; details: for MIC (μg/mL) for MRSA ATCC 33592: Table 1 and text; for MIC (μg/mL) for MRSA ATCC 33592 / MIC, S. aureus ATCC 33592 (SCCmec III): cation-adjusted MH broth, ~10^5 CFU/mL, 37°C, 16 h; for MIC, S. aureus ATCC 33592 (SCCmec III): Table S5, STIP3 variants, highest conc. tested 100 μg/mL, 2-fold dilution series; for Increase of the MIC relative to STIP3-29: D-Lys substituted variants
Method in brief: (§1)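 Strains were grown in LB at 37°C, then diluted in cation-adjusted Mueller-Hinton broth to OD 5 × 10^−4 (∼10^5 CFU/mL). Peptides were added in 2-fold dilutions, and plates were incubated without shaking at 37°C.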

[2] = test system: MRSA ATCC BAA-1683; assay: MIC determination in broth; format: cell-based, Staphylococcus aureus; details: STIP3 variants, highest conc. tested 100 μg/mL; cation-adjusted MH broth, ~10^5 CFU/mL, 2-fold dilution series, 37°C, 16 h
Method in brief: as §1

[3] = test system: MRSA ATCC BAA-2094; assay: MIC determination in broth; format: cell-based, Staphylococcus aureus; details: STIP3 variants, highest conc. tested 100 μg/mL; cation-adjusted MH broth, ~10^5 CFU/mL, 2-fold dilution series, 37°C, 16 h
Method in brief: as §1

[4] = test system: MRSA ATCC BAA-2313; assay: MIC determination in broth; format: cell-based, Staphylococcus aureus; details: STIP3 variants, highest conc. tested 100 μg/mL; cation-adjusted MH broth, ~10^5 CFU/mL, 2-fold dilution series, 37°C, 16 h
Method in brief: as §1

[5] = test system: MRSA ATCC BAA-41; assay: MIC determination in broth; format: cell-based, Staphylococcus aureus; details: STIP3 variants, highest conc. tested 100 μg/mL; cation-adjusted MH broth, ~10^5 CFU/mL, 2-fold dilution series, 37°C, 16 h
Method in brief: as §1

[6] = test system: MRSA ATCC BAA-42; assay: MIC determination in broth; format: cell-based, Staphylococcus aureus; details: STIP3 variants, highest conc. tested 100 μg/mL; cation-adjusted MH broth, ~10^5 CFU/mL, 2-fold dilution series, 37°C, 16 h
Method in brief: as §1

[7] = test system: MRSA ATCC BAA-44; assay: MIC determination in broth; format: cell-based, Staphylococcus aureus; details: STIP3 variants, highest conc. tested 100 μg/mL; cation-adjusted MH broth, ~10^5 CFU/mL, 2-fold dilution series, 37°C, 16 h
Method in brief: as §1

[8] = test system: S. aureus ATCC 29213; assay: MIC determination in broth; format: cell-based, Staphylococcus aureus; details: STIP3 variants, highest conc. tested 100 μg/mL; cation-adjusted MH broth, ~10^5 CFU/mL, 2-fold dilution series, 37°C, 16 h
Method in brief: as §1

[9] = Circular dichroism spectroscopy; format: physicochemical; details: CD, 50% TFE (vol/vol), peptide 0.2 mg/mL, room temperature
Experimental: Peptides were dissolved in ultrapure water or 50% TFE (vol/vol) at a concentration of 0.2 mg/mL for spectroscopy. Spectra of samples in a 1 mm pathlength quartz cuvette were recorded from 180 to 260 nm at 0.5 nm steps using an Applied Photophysics Chirascan Plus CD spectrophotometer operating at room temperature.

[10] = test system: M. luteus ATCC 4698; assay: MIC determination in broth; format: cell-based, Micrococcus luteus; details: cation-adjusted MH broth, ~10^5 CFU/mL, 30°C, 48 h
Experimental: M. luteus ATCC 4698, S. aureus ATCC 29213, a panel of 7 MRSA (ATCC MP-2) strains, which includes ATCC BAA-41, BAA-42, BAA-44, BAA-1683, BAA-2094, BAA-2313, and 33592, and a series of additional bacterial isolates from human and veterinary cases were used in this study (Table S6). Bacterial strains were routinely grown in lysogeny broth (LB: 10 g/L tryptone, 5 g/L yeast extract, 10 g/L NaCl) at 30°C (M. luteus) or 37°C (Staphylococcus spp.) prior to use in specific experiments described below.
The MICs were measured for bioactive peptides identified from the initial screen. Cation-adjusted Mueller-Hinton (MH) broth was used as the growth medium for MIC determination experiments. Bacterial cultures were diluted to an OD of 5 × 10^−4 (∼10^5 CFU/mL) in 200 μL MH broth mixed with peptides in a 2-fold dilution series arrayed in 96-well plates. Plates were incubated without shaking at 30 or 37°C depending on the organism.

[11] = test system: S. aureus; assay: MIC of STIP3-1 alanine variants in liquid broth; format: cell-based, Staphylococcus aureus; details: at 200 μg/mL
Experimental: The MICs were measured for bioactive peptides identified from the initial screen. […] […] Plates were incubated without shaking at 30 or 37°C depending on the organism.

[12] = test system: SspA; assay: SspA protease in 100 mM HEPES (pH 7.8); details: Staphylococcus aureus (staphylococcal secreted protease), 37°C, up to 5 h
[13] = test system: SspA; assay: SspA protease resuspended at 2 mg/mL in 100 mM HEPES (pH 7.8); details: 37°C, up to 5 h

Row | Molecule | MIC (μg/mL) for MRSA ATCC 33592 [1] | MIC, S. aureus ATCC 33592 (SCCmec III) [1] | MIC, S. aureus ATCC 29213 [8] | α-Helical content (%) [9] | fragment found [12] | cleaved bond [13] | also measured
1 | CC[C@@H](C)[C@@H](NC(=O)[C@@H](Cc1c[nH]c2ccccc12)NC(=O)[C@@H](CCCCN)NC(=O)[C@H](NC(=O)[C@@H](CC(C)C)NC(=O)CNC(=O)CNC(=O)[C@H](NC(=O)[C@H](N)[C@H](C)O)C(C)C)C(C)C)C(=O)N[C@H](CC(C)C)C(=O)N[C@H](CCCCN)C(=O)N[C@@H](C(=O)N[C@@H](C(=O)N[C@H](CCCCN)C(=O)N[C@H](CCCCN)C(=O)N[C@H](Cc1ccccc1)C(=O)N[C@H](C)C(N)=O)C(C)C)[C@H](C)O [D-STIP3-29] (H-[dT][dV]GG[dL][dV][dK][dW][dI][dL][dK][dT][dV][dK][dK][dF][dA]-NH2; N-terminus assumed) | 6.25 µg/mL | 6.25 µg/mL (≈ 3.31 µM) | 6.25 µg/mL (≈ 3.31 µM) | 47% | – | – | MIC, S. aureus ATCC BAA 1683 (SCCmec IV) [2]: 6.25 µg/mL (≈ 3.31 µM); MIC, S. aureus ATCC BAA 2094 (SCCmec V) [3]: 6.25 µg/mL (≈ 3.31 µM); MIC, S. aureus ATCC BAA 2313 (SCCmec XI) [4]: 6.25 µg/mL (≈ 3.31 µM); MIC, S. aureus ATCC BAA 41 (SCCmec II) [5]: 6.25 µg/mL (≈ 3.31 µM); MIC, S. aureus ATCC BAA 42 (SCCmec VI) [6]: 6.25 µg/mL (≈ 3.31 µM); MIC, S. aureus ATCC BAA 44 (SCCmec I) [7]: 12.5 µg/mL (≈ 6.62 µM)
2 | CC[C@H](C)[C@H](NC(=O)[C@H](Cc1c[nH]c2ccccc12)NC(=O)[C@H](CCCCN)NC(=O)[C@@H](NC(=O)[C@H](CC(C)C)NC(=O)CNC(=O)CNC(=O)[C@@H](NC(=O)[C@@H](NC(=O)c1ccc2c(c1)C(=O)OC21c2ccc(O)cc2Oc2cc(O)ccc21)[C@@H](C)O)C(C)C)C(C)C)C(=O)N[C@@H](CC(C)C)C(=O)N[C@@H](CCCCN)C(=O)N[C@H](C(=O)N[C@H](C(=O)N[C@@H](CCCCN)C(=O)N[C@@H](CCCCN)C(=O)N[C@@H](Cc1ccccc1)C(=O)N[C@@H](C)C(N)=O)C(C)C)[C@@H](C)O [FAM-L-STIP3-29] (5FAM-TVGGLVKWILKTVKKFA-NH2; C-terminus assumed) | – | – | – | 72% | – | – | –
3 | CC[C@H](C)[C@H](NC(=O)[C@H](Cc1c[nH]c2ccccc12)NC(=O)[C@H](CCCCN)NC(=O)[C@@H](NC(=O)[C@H](CC(C)C)NC(=O)CNC(=O)CNC(=O)[C@@H](NC(=O)[C@@H](N)[C@@H](C)O)C(C)C)C(C)C)C(=O)N[C@@H](CC(C)C)C(=O)N[C@H](CCCCN)C(=O)N[C@H](C(=O)N[C@H](C(=O)N[C@@H](CCCCN)C(=O)N[C@@H](CCCCN)C(=O)N[C@@H](Cc1ccccc1)C(=O)N[C@@H](C)C(N)=O)C(C)C)[C@@H](C)O [STIP3-29-D1] (H-TVGGLVKWIL[dK]TVKKFA-NH2; N-terminus assumed) | 25 µg/mL | 25 µg/mL (≈ 13.2 µM) | 12.5 µg/mL (≈ 6.62 µM) | 51% | – | – | Increase of the MIC relative to STIP3-29 [1]: 4 fold
4 | CC[C@H](C)[C@H](NC(=O)[C@H](Cc1c[nH]c2ccccc12)NC(=O)[C@@H](CCCCN)NC(=O)[C@@H](NC(=O)[C@H](CC(C)C)NC(=O)CNC(=O)CNC(=O)[C@@H](NC(=O)[C@@H](N)[C@@H](C)O)C(C)C)C(C)C)C(=O)N[C@@H](CC(C)C)C(=O)N[C@H](CCCCN)C(=O)N[C@H](C(=O)N[C@H](C(=O)N[C@@H](CCCCN)C(=O)N[C@H](CCCCN)C(=O)N[C@@H](Cc1ccccc1)C(=O)N[C@@H](C)C(N)=O)C(C)C)[C@@H](C)O [STIP3-29-D3] (H-TVGGLV[dK]WIL[dK]TVK[dK]FA-NH2; N-terminus assumed) | >100 µg/mL | > (The > symbol indicates that no inhibition was observed at 100 μg/mL for the STIP3 variants) | > (The > symbol indicates that no inhibition was observed at 100 μg/mL for the STIP3 variants) | 32% | – | – | Increase of the MIC relative to STIP3-29 [1]: inactivation
5 | AVGGLVKWILDTVKKFA [T1A] | – | – | – | – | – | – | MIC, M. luteus [10]: 12.5 µg/mL; Activity against S. aureus in nutrient broth [11]: maintained activity
6 | IIGTINDLIKWIADTVEKYKK | – | – | – | – | IIGTIND; also recorded: LIKWIAD | D-L and D-T | fragment found [13]: KYKK and LIKWIADTVE
7 | IISTIGDLIKWIIDTVKKFKK | – | – | – | – | IISTIGDLIKWIID; also recorded: TVKKFKK | D-T | –
8 | IISTIVEFVKLIAETIAKFMK | – | – | – | – | IISTIVE; also recorded: FVKLIAETIAKFMK; also recorded: TIAKFMK | E-T and E-F | –
